From US6395473B1, “Adenoviral based promoter assay” (Merck & Co., Inc., priority 1998, dated 2002)

Tested on: rat glutathione S-transferase Ya subunit promoter
Assay: CAT reporter activity induction in HepG2 cells carrying the rat GST Ya promoter/CAT construct
Assay type: cell-based
Details: HepG2 cells infected with pdelE1sp1B-1.6CAT, a-NF 50 mM
Excerpt: DNA coding for a promoter/reporter rat glutathione S-transferase Ya subunit 1.6 kb promoter sequence positioned upstream of the chloramphenicol acetyltransferase reporter gene was cloned into the adenovirus shuttle vector pdelE1sp1B, whereby the E1B genome of the adenovirus is deleted and replaced. Successful construction of the shuttle vector, pdelE1sp1B-1.6CAT was verified by both restriction mapping and by sequencing across the 5′- and 3′-ends of the cloning sites. In addition, the shuttle vector was tested functionally in HepG2 cells for regulation of expression of CAT by a-napthoflavone ([…]).
HepG2 cells were seeded in 12- or 24-well plates at a density of 60-70% confluence. Cells were infected the following day with Ad1.6CAT (9.7×10^8 pfu/ml) at an MOI of 5 for 1 h. At the end of the infection period the virus was removed, the cells were rinsed once with PBS, and fresh media was placed on the cells. […]
HepG2 cells were harvested at various time points following induction of CAT expression. […] CAT activity determined by the method of Gorman et al. using 10 ug of protein for 60 minute at 37° C. Acetylated products of chloramphenicol were extracted with mixed xylenes and quantitated by liquid scintillation counting. Results were expressed as fold induction versus control.

- Induction of CAT activity (fold induction versus control) (after 24 hours): approximately 45 fold
- Induction of CAT activity (fold induction versus control) (after 48 hours): approximately 85 fold
SMILES: O=c1cc(-c2ccccc2)oc2c1ccc1ccccc12 [a-NF, a-napthoflavone]
